{
  "source": "patent US20200087625A1",
  "about": "“METHODS FOR ISOLATING, EXPANDING AND ADMINISTERING CANCER SPECIFIC CD8+ T CELLS” (priority 2017, published 2020)",
  "key": {"NK cells and MDSC": {"test_system": "NK cells and MDSC", "assay": "Innate immune cell recruitment to the lungs (flow cytometry)", "assay_type": "in vivo, BALB/c mice", "settings": "1V270 day -1; vs vehicle", "procedure": "FIGS. 25A-25F. Innate immune cells, NK cells and dendritic cells are activated following 1V270 therapy and contribute to anti-metastatic effects (A-C) Systemic administration of 1V270 activates dendritic cells and increases CD8^+ cell recruitment in the lung draini lymph node. (A) BALB/c mice (n=S/group) were treated with 1V270 on day −1 and then tumor cells were i.v. administered on day 0. Seven days later, mediastinal lymph node (mLN) cells were stained for dendritic cells (DC; CD45^+CD11c^+MHC classll^+). (B) DCs were further stained for CD80 and CD86. (C) The mLN cells were also stained for central memory CD8^+ T cells (CD3+CD8^+CD44^+CD62L^+), effector memory CD8^+ T cells (CD3+CD8^+CD44^+CD62L^+), and naive CD8^+ T cells (CD3+CD8^+CD44^−CD62L^−). Each dot indicates an individual mouse and horizontal and vertical bars indicate means±SEM. […] Tumor signals were quantified by IVIS. […] On the next day, lung cells were stained for NK markers (CD45^+[…] NKp46^+CD49^+) and analyzed by flow cytometry. […] Tumor signals were analyzed as described above. […]\nFIGS. 33A-33C. […] Next day, single cell suspensions derived from the lungs were stained for (A) NK cells (CD45^+CD3^−NKp46^+CD49^+), (B) M-MDSCs (CD45^+CD11b^+Ly6G^−Ly6^high) and (C) PMN-MDSCs (CD45^+CD11b^+Ly6G^+) were analyzed by flow cytometric assay. […]"}, "dendritic cells": {"test_system": "dendritic cells", "assay": "Dendritic cell activation and CD8+ T cell recruitment in mLN and lungs", "assay_type": "in vivo, BALB/c mice", "settings": "day 7", "procedure": "FIGS. 25A-25F. Innate immune cells, NK cells and dendritic cells are activated following 1V270 therapy and contribute to anti-metastatic effects (A-C) Systemic administration of 1V270 activates dendritic cells and increases CD8^+ cell recruitment in the lung draini lymph node. (A) BALB/c mice (n=S/group) were treated with 1V270 on day −1 and then tumor cells were i.v. administered on day 0. Seven days later, mediastinal lymph node (mLN) cells were stained for dendritic cells (DC; CD45^+CD11c^+MHC classll^+). (B) DCs were further stained for CD80 and CD86. (C) The mLN cells were also stained for central memory CD8^+ T cells (CD3+CD8^+CD44^+CD62L^+), effector memory CD8^+ T cells (CD3+CD8^+CD44^+CD62L^+), and naive CD8^+ T cells (CD3+CD8^+CD44^−CD62L^−). Each dot indicates an individual mouse and horizontal and vertical bars indicate means±SEM. Data are representative of 3 independent experiments showing similar results. *P<0.05, **P<0.01 by Mann-Whitney U test comparing the individual groups. (D-F) In vivo imaging analyses using GLF•expressing 4T1 cells (4T1-GLF). (D) BALB/c mice (n=14-15/group) were i.p, administered with 200 μg 1V270 or vehicle. Next day, 2×10^4 4T1-GLF cells were i.v. injected through the tail vein. Tumor signals were quantified by IVIS. Data (mean±SEM) were pooled from 3 independent experiments showing similar results. *P<0.05, **P<0.01 by two-way ANOVA using a Bonferroni post hoc test comparing treatment groups against the vehicle group. […] (E,F) NK cells recruited by 1V270 therapy prevent colonization of 4T1 cells. (E) BALB/c mice (n=G−7/group) were treated with 1V270 (200 μg/injection) on day −1 and then tumor cells were i.v. administered on day 0. On the next day, lung cells were stained for NK markers (CD45^+[…] NKp46^+CD49^+) and analyzed by flow cytometry. […] Tumor signals were analyzed as described above. […]\nSince the 1V270 therapy induced a tumor-specific CD8^+ T cell response in the 4T1 model, we evaluated whether the therapy activated APCs in the lungs, and/or in the draining lymph nodes. […]"}},
  "data": [
    {"smiles": "CCCCCCCCC=CCCCCCCCC(=O)OCC(COP(=O)(O)OCCNC(=O)c1ccc(Cn2c(=O)[nH]c3c(N)nc(OCCOC)nc32)cc1)OC(=O)CCCCCCCC=CCCCCCCCC", "note": "(centres unmarked) [1V270]", "values": [
      {"measurement": "population of NK cells recruited to the lungs", "setting": "NK cells and MDSC", "result": "Significantly increased populations"},
      {"measurement": "population of monocytic-MDSC recruited to the lungs", "setting": "NK cells and MDSC", "result": "Significantly increased populations"},
      {"measurement": "frequencies of cells expressing co-stimulatory molecules (CD80 or CD86)", "setting": "dendritic cells; 1V270 i.p. day -1", "result": "significantly increased"},
      {"measurement": "recruitment of CD8+ T cells (central memory, effector memory, naive)", "setting": "dendritic cells; mLN", "result": "recruitment of CD8^+ T cells with memory and nalve phenotypes"},
      {"measurement": "population of CD11c+ dendritic cells", "setting": "dendritic cells; mLNs and lungs, 1V270 i.p. day -1", "result": "increased in both mLNs and the lungs"}
    ]}
  ]
}
